In US12714696B2, “Low dose fluralaner compositions for protection against parasitic invertebrate pest” (VIRBAC, priority 2019, dated 2026):
“And” between values parts separate entries of the source, which are not always exact repeats. Equal entries are not always repeated. Where two headings read alike, the source gives them in different places.

Experiment: Pharmacokinetics after repeated oral administration of 35 μg/kg of fluralaner in dogs after feeding
Type: in vivo, beagle dogs
Conditions: for concentration at 24 h / concentration at 48 h / concentration at 72 h / concentration at 96 h / concentration at 120 h / concentration at 240 h / concentration at 360 h / concentration at 480 h: po, 35 μg/kg
Protocol: The first objective of the study was to obtain the pharmacokinetic parameters after repeated oral administration of 35 μg/kg of fluralaner in dogs, 30 to 35 minutes after feeding.
The second objective was to investigate the pharmacodynamics between the fluralaner plasmatic dose and the effectiveness against fleas. • IVP: Investigational Veterinary Product, is pure Fluralaner+DMSO (35 μg/kg on Days 0 to 3 (0.35 mL/kg)) • Control product is DMSO (0.35 mL/kg on Days 0 to 3)
On Days 0, 1, 2 and 3, all dogs assigned to group 2 received the Investigational Veterinary Product. On Days 0 to 3 all dogs in group 1 received the control product at a volume equal to the dogs in group 2. Dogs assigned to group 1 received the control product and served as Placebo controls. The quantity of Investigational Veterinary Product and control product administered was calculated according to the dog's individual body weight measured on Day −1.
Blood samples were taken from all dogs prior to Investigational Veterinary Product treatment or control product administration on Day 0 and on Days 1 (+24 hours), 2 (+48 hours), 3 (+72 hours), 4 (+96 hours), 5 (+120 hours), 10 (+240 hours), 15 (+360 hours), 20 (+480 hours), 24 (+576 hours) and Day 28 (+672 hours).
On days of administration of pre-Investigational Veterinary Product or Control Product, dogs were fed (the same dog food) approximately half of their normal daily ration 30 minutes to 35 minutes prior to administration. Food consumed by the time of administration was calculated and recorded. The remainder of their normal daily ration was fed immediately after administration.
The PK parameters of fluralaner were calculated using a non-compartmental approach.
The following rules were applied for the calculation of the PK parameters: • All the plasma concentrations, validated by the bioanalytical laboratory, were used for the PK analysis. • The actual blood sampling times were used throughout. • Concentrations below the Limit of Quantification (LOQ) value were considered as zero from time zero (pre-dose) up to the time at which the first quantifiable concentration above the LOQ value was observed. Concentrations below the LOQ value between two quantifiable concentrations were considered as missing. Trailing concentrations below the LOQ value were not used in calculations.
Cmax the observed maximum concentration in plasma measured after dosing.
tmax the time at which Cmax was apparent.
λz the terminal rate constant (λz) was estimated by log-linear regression analysis on data points visually assessed, to be on the terminal log-linear phase. For the slope of the terminal elimination phase to be accepted as reliable, the following criteria were used: • the terminal data points were apparently randomly distributed about a single straight line (on visual inspection), • a minimum of three data points, including the last measured data point and excluding Cmax, were available for the regression.
t1/2 the terminal plasma half-life (t1/2) was calculated according to the following equation: […]
AUC0-t the area under the concentration-time curve from time zero (pre-dose) to the time of last quantifiable concentration (t) was calculated using a linear trapezoidal method.
[AUC0-∞=AUC0-t+(Ct/λz)], where Ct was the observed concentration of drug for the last sample on the PK profile in which the drug was detected, and λz was as defined above.
The extrapolated area under the curve, expressed as a percentage of the total area, AUCinf, was also calculated as: Area Extra (%)=(AUC0-∞−AUC0-t)/AUC0-∞*100%.

Cc1cc(C2=NOC(c3cc(Cl)cc(Cl)c3)(C(F)(F)F)C2)ccc1C(=O)NCC(=O)NCC(F)(F)F (centres unmarked) [fluralaner, Fluralaner]
fluralaner concentration levels, individual animal (24 h, oral 35 μg/kg Days 0-3, dogs): 16.5 ng/mL and 16.9 ng/mL (2×) and 18.1 ng/mL and 19.0 ng/mL | fluralaner concentration levels, individual animal (48 h, oral 35 μg/kg Days 0-3, dogs): 27.8 ng/mL and 32.2 ng/mL and 37.2 ng/mL and 35.2 ng/mL and 40.9 ng/mL | fluralaner concentration levels, individual animal (72 h, oral 35 μg/kg Days 0-3, dogs): 60.6 ng/mL and 47.9 ng/mL and 61.0 ng/mL and 42.0 ng/mL and 57.7 ng/mL | fluralaner concentration levels, individual animal (96 h, oral 35 μg/kg Days 0-3, dogs): 76.6 ng/mL and 91.6 ng/mL and 84.5 ng/mL and 71.8 ng/mL and 92.4 ng/mL | fluralaner concentration levels, individual animal (120 h, oral 35 μg/kg Days 0-3, dogs): 60.1 ng/mL and 63.6 ng/mL and 55.6 ng/mL and 62.9 ng/mL and 70.0 ng/mL | fluralaner concentration levels, individual animal (240 h, oral 35 μg/kg Days 0-3, dogs): 45.8 ng/mL and 34.1 ng/mL and 36.3 ng/mL and 51.6 ng/mL and 44.4 ng/mL | fluralaner concentration levels, individual animal (360 h, oral 35 μg/kg Days 0-3, dogs): 39.2 ng/mL and 39.6 ng/mL and 43.5 ng/mL and 37.4 ng/mL and 35.2 ng/mL | fluralaner concentration levels, individual animal (480 h, oral 35 μg/kg Days 0-3, dogs): 26.1 ng/mL and 17.1 ng/mL and 21.1 ng/mL and 26.6 ng/mL and 18.4 ng/mL | fluralaner concentration levels, individual animal (576 h, oral 35 μg/kg Days 0-3, dogs): 22.0 ng/mL and 14.7 ng/mL and 15.0 ng/mL and 22.2 ng/mL and 13.3 ng/mL | fluralaner concentration levels, individual animal (672 h, oral 35 μg/kg Days 0-3, dogs): 15.1 ng/mL and 9.1 ng/mL and 10.3 ng/mL and 16.0 ng/mL and 10.4 ng/mL | steady state concentrations (after the fourth dose of 35 μg/kg per day oral): not reached | tmax (beagle, dog, plasma, 35 ug/kg, oral 35 μg/kg Days 0-3, dogs, read-out: Tmax, individual animal): 96 h | concentration at 24 h (beagle, dog, plasma, 24 h, oral 35 μg/kg Days 0-3, dogs, n=6, read-out: fluralaner concentration levels, GeoMean): 17.3 ng/mL | concentration at 24 h (beagle, dog, plasma, 24 h, oral 35 μg/kg Days 0-3, dogs, n=6, read-out: fluralaner concentration levels, Maximum): 19 ng/mL | concentration at 24 h (beagle, dog, plasma, 24 h, oral 35 μg/kg Days 0-3, dogs, n=6, read-out: fluralaner concentration levels, Mean): 17.4 ng/mL | concentration at 24 h (beagle, dog, plasma, 24 h, oral 35 μg/kg Days 0-3, dogs, n=6, read-out: fluralaner concentration levels, Median): 16.9 ng/mL | concentration at 24 h (beagle, dog, plasma, 24 h, oral 35 μg/kg Days 0-3, dogs, n=6, read-out: fluralaner concentration levels, Minimum): 18.5 ng/mL | concentration at 24 h (beagle, dog, plasma, 24 h, oral 35 μg/kg Days 0-3, dogs, read-out: fluralaner concentration levels, individual animal): 16.7 ng/mL | concentration at 48 h (beagle, dog, plasma, 48 h, oral 35 μg/kg Days 0-3, dogs, n=6, read-out: fluralaner concentration levels, GeoMean): 32.8 ng/mL | concentration at 48 h (beagle, dog, plasma, 48 h, oral 35 μg/kg Days 0-3, dogs, n=6, read-out: fluralaner concentration levels, Maximum): 40.9 ng/mL | concentration at 48 h (beagle, dog, plasma, 48 h, oral 35 μg/kg Days 0-3, dogs, n=6, read-out: fluralaner concentration levels, Mean): 33.2 ng/mL | concentration at 48 h (beagle, dog, plasma, 48 h, oral 35 μg/kg Days 0-3, dogs, n=6, read-out: fluralaner concentration levels, Median): 33.7 ng/mL | concentration at 48 h (beagle, dog, plasma, 48 h, oral 35 μg/kg Days 0-3, dogs, n=6, read-out: fluralaner concentration levels, Minimum): 26.1 ng/mL | concentration at 48 h (beagle, dog, plasma, 48 h, oral 35 μg/kg Days 0-3, dogs, read-out: fluralaner concentration levels, individual animal): 26.1 ng/mL | concentration at 72 h (beagle, dog, plasma, 72 h, oral 35 μg/kg Days 0-3, dogs, n=6, read-out: fluralaner concentration levels, GeoMean): 51.7 ng/mL | concentration at 72 h (beagle, dog, plasma, 72 h, oral 35 μg/kg Days 0-3, dogs, n=6, read-out: fluralaner concentration levels, Maximum): 61 ng/mL | concentration at 72 h (beagle, dog, plasma, 72 h, oral 35 μg/kg Days 0-3, dogs, n=6, read-out: fluralaner concentration levels, Mean): 52.3 ng/mL | concentration at 72 h (beagle, dog, plasma, 72 h, oral 35 μg/kg Days 0-3, dogs, n=6, read-out: fluralaner concentration levels, Median): 52.8 ng/mL | concentration at 72 h (beagle, dog, plasma, 72 h, oral 35 μg/kg Days 0-3, dogs, n=6, read-out: fluralaner concentration levels, Minimum): 42 ng/mL | concentration at 72 h (beagle, dog, plasma, 72 h, oral 35 μg/kg Days 0-3, dogs, read-out: fluralaner concentration levels, individual animal): 44.6 ng/mL | concentration at 96 h (beagle, dog, plasma, 96 h, oral 35 μg/kg Days 0-3, dogs, n=6, read-out: fluralaner concentration levels, GeoMean): 84 ng/mL | concentration at 96 h (beagle, dog, plasma, 96 h, oral 35 μg/kg Days 0-3, dogs, n=6, read-out: fluralaner concentration levels, Maximum): 92.4 ng/mL | concentration at 96 h (beagle, dog, plasma, 96 h, oral 35 μg/kg Days 0-3, dogs, n=6, read-out: fluralaner concentration levels, Mean): 84.4 ng/mL | concentration at 96 h (beagle, dog, plasma, 96 h, oral 35 μg/kg Days 0-3, dogs, n=6, read-out: fluralaner concentration levels, Median): 87 ng/mL | concentration at 96 h (beagle, dog, plasma, 96 h, oral 35 μg/kg Days 0-3, dogs, n=6, read-out: fluralaner concentration levels, Minimum): 71.8 ng/mL | concentration at 96 h (beagle, dog, plasma, 96 h, oral 35 μg/kg Days 0-3, dogs, read-out: fluralaner concentration levels, individual animal): 89.4 ng/mL | concentration at 120 h (beagle, dog, plasma, 120 h, oral 35 μg/kg Days 0-3, dogs, n=6, read-out: fluralaner concentration levels, GeoMean): 63.8 ng/mL | concentration at 120 h (beagle, dog, plasma, 120 h, oral 35 μg/kg Days 0-3, dogs, n=6, read-out: fluralaner concentration levels, Maximum): 72.3 ng/mL | concentration at 120 h (beagle, dog, plasma, 120 h, oral 35 μg/kg Days 0-3, dogs, n=6, read-out: fluralaner concentration levels, Mean): 64.1 ng/mL | concentration at 120 h (beagle, dog, plasma, 120 h, oral 35 μg/kg Days 0-3, dogs, n=6, read-out: fluralaner concentration levels, Median): 63.2 ng/mL | concentration at 120 h (beagle, dog, plasma, 120 h, oral 35 μg/kg Days 0-3, dogs, n=6, read-out: fluralaner concentration levels, Minimum): 55.6 ng/mL | concentration at 120 h (beagle, dog, plasma, 120 h, oral 35 μg/kg Days 0-3, dogs, read-out: fluralaner concentration levels, individual animal): 72.3 ng/mL | concentration at 240 h (beagle, dog, plasma, 240 h, oral 35 μg/kg Days 0-3, dogs, n=6, read-out: fluralaner concentration levels, GeoMean): 43.9 ng/mL | concentration at 240 h (beagle, dog, plasma, 240 h, oral 35 μg/kg Days 0-3, dogs, n=6, read-out: fluralaner concentration levels, Maximum): 54.9 ng/mL | concentration at 240 h (beagle, dog, plasma, 240 h, oral 35 μg/kg Days 0-3, dogs, n=6, read-out: fluralaner concentration levels, Mean): 44.5 ng/mL | concentration at 240 h (beagle, dog, plasma, 240 h, oral 35 μg/kg Days 0-3, dogs, n=6, read-out: fluralaner concentration levels, Median): 45.1 ng/mL | concentration at 240 h (beagle, dog, plasma, 240 h, oral 35 μg/kg Days 0-3, dogs, n=6, read-out: fluralaner concentration levels, Minimum): 34.1 ng/mL | concentration at 240 h (beagle, dog, plasma, 240 h, oral 35 μg/kg Days 0-3, dogs, read-out: fluralaner concentration levels, individual animal): 54.9 ng/mL | concentration at 360 h (beagle, dog, plasma, 360 h, oral 35 μg/kg Days 0-3, dogs, n=6, read-out: fluralaner concentration levels, GeoMean): 39.5 ng/mL | concentration at 360 h (beagle, dog, plasma, 360 h, oral 35 μg/kg Days 0-3, dogs, n=6, read-out: fluralaner concentration levels, Maximum): 43.5 ng/mL | concentration at 360 h (beagle, dog, plasma, 360 h, oral 35 μg/kg Days 0-3, dogs, n=6, read-out: fluralaner concentration levels, Mean): 39.6 ng/mL | concentration at 360 h (beagle, dog, plasma, 360 h, oral 35 μg/kg Days 0-3, dogs, n=6, read-out: fluralaner concentration levels, Median): 39.4 ng/mL | concentration at 360 h (beagle, dog, plasma, 360 h, oral 35 μg/kg Days 0-3, dogs, n=6, read-out: fluralaner concentration levels, Minimum): 35.2 ng/mL | concentration at 360 h (beagle, dog, plasma, 360 h, oral 35 μg/kg Days 0-3, dogs, read-out: fluralaner concentration levels, individual animal): 42.8 ng/mL | concentration at 480 h (beagle, dog, plasma, 480 h, oral 35 μg/kg Days 0-3, dogs, n=6, read-out: fluralaner concentration levels, GeoMean): 22.1 ng/mL | concentration at 480 h (beagle, dog, plasma, 480 h, oral 35 μg/kg Days 0-3, dogs, n=6, read-out: fluralaner concentration levels, Maximum): 26.6 ng/mL
